Values after ≈ are worked out from the molar mass of the structure shown.
Columns and labels:
[1] = tested on: Mycobacterium tuberculosis; test: Antitubercular activity against multidrug-resistant Mycobacterium tuberculosis by two fold serial dilution method; assay type: functional
[2] = Safety index, ratio of IC50 for african green monkey Vero cells to MIC for multidrug-resistant Mycobacterium tuberculosis; assay type: toxicity, cell-based

Compound	MIC [1] [µM]	selectivity ratio [2]
COc1ccc(C2C3Cc4cc(OC)c(OC)cc4C3=NN2C(N)=O)cc1OC (stereo not given)	> 10.1	–
COc1cc2c(cc1OC)C1=NN(C(=O)Nc3ccc([N+](=O)[O-])cc3)C(c3ccncc3)C1C2 (stereo not given)	> 13.6	–
COc1ccc(C2C3Cc4cc(OC)c(OC)cc4C3=NN2C(=O)Nc2ccc([N+](=O)[O-])cc2)cc1 (stereo not given)	> 12.8	–
COc1cc2c(cc1OC)C1=NN(C(=O)Nc3ccc([N+](=O)[O-])cc3)C(c3ccc(F)cc3)C1C2 (stereo not given)	6.32 (≈ 3.01 µg/mL)	–
COc1ccc(C2C3Cc4cc(OC)c(OC)cc4C3=NN2C(=O)Nc2ccc([N+](=O)[O-])cc2)cc1OC (stereo not given)	> 12.1	–
NNC(=O)c1ccncc1 [ISONIAZID]	45.6 (≈ 6.25 µg/mL)	–
COc1cc2c(cc1OC)C1=NN(C(=O)Nc3ccc(Cl)cc3)C(c3ccc(F)cc3)C1C2 (stereo not given)	3.32 (≈ 1.55 µg/mL)	40.3
COc1cc2c(cc1OC)C1=NN(C(=O)Nc3ccc([N+](=O)[O-])cc3)C(c3ccccc3Cl)C1C2 (stereo not given)	> 12.7	–
COc1cc2c(cc1OC)C1=NN(C(=O)Nc3ccc(Cl)cc3)C(c3ccncc3)C1C2 (stereo not given)	10 (≈ 4.49 µg/mL)	–
COc1cc2c(cc1OC)C1=NN(C(N)=O)C(c3ccccc3)C1C2 (stereo not given)	> 11.8	–
COc1ccc(C2C3Cc4cc(OC)c(OC)cc4C3=NN2C(N)=O)cc1 (stereo not given)	> 10.9	–
COc1cc2c(cc1OC)C1=NN(C(=O)Nc3ccc(Cl)cc3)C(c3ccccc3)C1C2 (stereo not given)	10.5 (≈ 4.69 µg/mL)	–
COc1cc2c(cc1OC)C1=NN(C(=O)Nc3ccc(Cl)cc3)C(c3ccccc3Cl)C1C2 (stereo not given)	> 13.9	–
COc1cc2c(cc1OC)C1=NN(C(N)=O)C(c3ccncc3)C1C2 (stereo not given)	> 11.8	–
COc1ccc(C2C3Cc4cc(OC)c(OC)cc4C3=NN2C(=O)Nc2ccc(Cl)cc2)cc1 (stereo not given)	> 10.5	–
COc1ccc(C2C3Cc4cc(OC)c(OC)cc4C3=NN2C(=O)Nc2ccc(Cl)cc2)cc1OC (stereo not given)	> 9.8	–
COc1cc2c(cc1OC)C1=NN(C(=O)Nc3ccc([N+](=O)[O-])cc3)C(c3ccccc3)C1C2 (stereo not given)	13.6 (≈ 6.24 µg/mL)	–
COc1cc2c(cc1OC)C1=NN(C(N)=O)C(c3ccc(F)cc3)C1C2 (stereo not given)	6.62 (≈ 2.35 µg/mL)	–
COc1cc2c(cc1OC)C1=NN(C(N)=O)C(c3ccccc3Cl)C1C2 (stereo not given)	> 10.8	–

— ChEMBL document CHEMBL1909540, “Synthesis and antimycobacterial evaluation of 3a,4-dihydro-3H-indeno [1,2-c] pyrazole-2-carboxamide analogues” (Eur J Med Chem, 2011)
